Consider 1 molecule from PMC12591170, “Glabridin‐Gold(I) Complex as a Novel Immunomodulatory Agent Targeting TrxR and MAPK Pathways for Synergistic Enhancement of Antitumor Immunity” (Advanced Science, 2025).

Structures are written as SMILES. “Also recorded” adds a separate entry of the source.

Test [1] deals with HepG2 cells. Kind of test: MTT antiproliferative assay, HepG2. It counts as cell-based, human. How it is done:
(§1) All cells were incubated at 37 °C by DMEM complete medium (containing 1% penicillin−streptomycin and 12% FBS) in 5% CO2 incubator. 2–5 × 10^3 cells were cultured in 96‐well plates and each well contained 100 µL complete medium. OXA was dissolved in water, and all other complexes were dissolved in DMF. After cells adhered in the wells, different concentrations of complexes were diluted in 100 µL complete medium and added in the wells. The final volume in the each well was 200 µL and the content of DMF was maximum 0.5%. After 72 h incubation, the antiproliferative activity was tested by MTT assay.
Background: Tetrazolium dyes change colour on reduction, which living cells bring about.

Another test relates to 293T cells. The test can be described thus: MTT assay, normal kidney cell line 293T. Format: cell-based. The following applies: 72 h MTT assay, Mean ± SD. As to the method:
as §1

The target in another test is T1, TrxR (Homo sapiens, UniProt Q16881).
T1 construct: endogenous in cells; host or cells: HepG2
T1 sequence (Q16881 151-649 limits assumed): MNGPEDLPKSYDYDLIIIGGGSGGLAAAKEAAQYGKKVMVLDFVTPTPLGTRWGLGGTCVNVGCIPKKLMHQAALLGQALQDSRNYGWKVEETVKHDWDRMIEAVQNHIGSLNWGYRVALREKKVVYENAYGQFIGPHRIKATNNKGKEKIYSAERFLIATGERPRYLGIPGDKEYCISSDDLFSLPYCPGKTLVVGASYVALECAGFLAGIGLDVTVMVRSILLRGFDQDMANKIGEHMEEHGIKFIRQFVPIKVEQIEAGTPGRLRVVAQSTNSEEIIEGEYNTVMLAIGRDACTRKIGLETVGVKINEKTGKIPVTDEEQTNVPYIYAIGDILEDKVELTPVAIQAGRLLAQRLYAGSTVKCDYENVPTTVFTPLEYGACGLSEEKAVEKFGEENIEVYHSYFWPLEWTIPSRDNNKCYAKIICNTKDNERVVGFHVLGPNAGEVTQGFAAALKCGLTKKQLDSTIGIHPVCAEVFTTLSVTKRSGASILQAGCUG
The test can be described thus: Intracellular TrxR activity (kit, probe) and TrxR expression in HepG2. Format: cell-based. As to the method: 1 × 10^6 HepG2 cells were cultured in 6 cm culture dishes, and treated with DMF (0.1%), AF (4 µM) or different concentrations of 6d (2, 4, 8 µM) after cell adhesion. 24 h later, the intracellular TrxR activity was analyzed by the TrxR activity detection kit.
In addition, intracellular TrxR activity was detected by TrxR probe. 5 × 10^4 HepG2 cells were seeded in 12‐well plate. After 24 h, the complete medium was removed, and the each well was washed twice by phosphate buffer saline (PBS). 10 µM TrxR probe (dissolved in PBS) was added for 1 h incubation. Then, the probe was removed, and washing twice was performed by PBS. The fluorescence microscopy was applied to capture the cell images under the channel of FITC.
HepG2 cells were incubated in 6 cm culture dishes and treated with different complexes. The treated cells were lysed with lysis buffer (RIPA:PMSF:phosphatase inhibitor:protease inhibitor = 100:1:1:1). The lysed cells were further broken by sonication, and proteins were isolated by centrifugation. The protein concentrations were detected by BCA assay. 10% SDS PAGE gel was usually applied to separate the different kDa of proteins, and more than 200 kDa of proteins were separated using 8% SDS PAGE gel. After seperation, proteins were transferred onto polyvinylidene difluoride (PVDF) membranes. […] The target proteins’ bands were detected by the enhanced chemiluminescence (ECL) procedure.

In test [2] the test system is HepG2 cells. The test can be described thus: MMP measurement (JC-1). Format: cell-based, human. The note with it: HepG2, 24 h. How it is done:
12‐well plate was applied to incubate HepG2 cells (5 × 10^4 cells per wells). After overnight, cells were treated with DMF (0.1%), AF (4 µM) or different concentrations of 6d (2, 4, 8 µM) for 24 h. 2.5 µg mL^−1 JC‐1 probe was added in the wells after removing original liquid. 15 min later, PBS was applied to wash cells for two times. Then, the fluorescence images were captured by the fluorescence microscopy.

Test [3] relates to HepG2 cells. Kind of test: Apoptosis assay (annexin V-EGFP/PI). Format: cell-based, human. The note with it: HepG2, 24 h. How it is done:
4 × 10^5 HepG2 cells was seeded in 6‐well plates for overnight incubation. DMF (0.1%), AF (4 µM) or different concentrations of 6d (2, 4, 8 µM) were added in the wells for 24 h. PBS was applied to wash cells for two times, and cells were collected subsequently. After washing twice by PBS, Annexin V‐EGFP/PI Apoptosis Detection kit was used to dye the cells. Then, the apoptosis ratio was analyzed by flow cytometer.

Test [4] relates to MAPK pathway (phosphorylated MEK1/2 and ERK1/2). Kind of test: Western blot of MAPK pathway in HepG2. It counts as cell-based, human. The following applies: HepG2, 24 h. How it is done:
(§2) HepG2 cells were incubated in 6 cm culture dishes and treated with different complexes. The treated cells were lysed with lysis buffer (RIPA:PMSF:phosphatase inhibitor:protease inhibitor = 100:1:1:1). The lysed cells were further broken by sonication, and proteins were isolated by centrifugation. The protein concentrations were detected by BCA assay. 10% SDS PAGE gel was usually applied to separate the different kDa of proteins, and more than 200 kDa of proteins were separated using 8% SDS PAGE gel. After seperation, proteins were transferred onto polyvinylidene difluoride (PVDF) membranes. The target proteins were labeled by various specific primary antibodies at 4 °C overnight. Then, the membranes were treated with anti‐rabbit or anti‐mouse secondary antibody for 2 h. Tris buffered saline with tween 20 (TBST) was applied to wash the membranes after each operation above. The target proteins’ bands were detected by the enhanced chemiluminescence (ECL) procedure.
(In general: A western blot detects proteins with antibodies after separation by electrophoresis.)

The subject of test [5] is PD-L1. The test can be described thus: PD-L1 expression in HepG2 (western blot, immunofluorescence, flow cytometry). It counts as cell-based, human. The note with it: HepG2, 24 h. As to the method: as §2
5 × 10^4 HepG2 cells were treated with complexes in 24‐well plates for 24 h. Subsequently, cells were fixed with 4% paraformaldehyde. Various specific antibodies were added for incubation at 4 °C overnight after cells were permeabilized with Triton X‐100 (except for membrane proteins) and blocked with BSA. Then, the cells were incubated with fluorescently‐labeled secondary antibodies in darkness for 2 h. After that, DAPI was added to stain nuclear in darkness. PBS was applied for washing after each operation above (Tris buffered saline (TBS) was applied for washing if phosphorylated protein was analyzed). The cell images were captured by the fluorescence microscopy.
4 × 10^5 HepG2 cells were incubated in 6‐well plates, and complexes were added in the wells. The cells were collected after incubation, and the treated cells were labeled with probes or fluorescently‐labeled antibodies. A flow cytometer was applied to analyze the labeled cells.

The next test concerns phosphorylated Akt. Kind of test: Western blot of phosphorylated Akt in HepG2. Format: cell-based, human. The note with it: HepG2, 24 h; GLA at 8 µM. How it is done:
as §2

The subject of another test is Hepa1-6 tumors. Kind of test: In vivo antitumor assay, Hepa1-6 tumors. Also on record: species or system C57BL/6 mice.
Test [6] deals with MAPK pathway (phosphorylated MEK1/2 and ERK1/2). The test can be described thus: In vivo MAPK pathway in tumor tissue. Also on record: species or system C57BL/6 mice. The note with it: western blot, day 13.
Test [7] concerns PD-L1. Kind of test: In vivo PD-L1 expression in tumor tissue. Also on record: species or system C57BL/6 mice. The note with it: western blot, 13 days of treatment.

Procedure for Hepa1-6 tumors: All mice were 6–8 weeks old males and procured from Hangzhou Medical College, located in Hangzhou, China. […] 2 × 10^6 Hepa1‐6 cells in 100 µL DMEM were subcutaneously seeded in underarms of C57BL/6 mice. […] Meanwhile, the mice weights and tumor volume were recorded, and the calculation formula of tumor volume was Volume = Width^2 × Length/2. After 13 days, all mice were sacrificed for collection of tumors, hearts, livers, spleens, lungs and kidneys. Collagenase IV (1 mg mL^−1) and DNase I (1 µg mL^−1) were applied to digest a part of the tumor tissue into cell suspension, and lysis buffer was used to remove red blood cells. The prepared cells above were stained with antibodies (anti‐CD3e‐FITC, and anti‐CD8a‐PE; anti‐CD11c‐APC, anti‐CD80‐PE, and anti‐CD86‐FITC; anti‐CD45‐Percp, anti‐CD11b‐APC, and anti‐Ly‐6G/Ly‐6C(Gr‐1)‐FITC; anti‐CD11b‐APC, anti‐CD206‐PE, and CD86‐FITC). CD3^+CD8^+ T cells, CD80^+CD86^+ DCs, CD11b^+Gr‐1^+ MDSCs, CD206^−CD86^+ M1‐type macrophages and CD206^+CD86^− M2‐type macrophages were analyzed by flow cytometry. Then, another part of tumor tissues were fixed with 4% paraformaldehyde, embedded in paraffin, cut into slices and stained with antibodies for immunofluorescence and immunohistochemistry analysis.

With `CCn1ccn(CCCCCOc2ccc([C@@H]3COc4c(ccc5c4C=CC(C)(C)O5)C3)c(OCCCCCn3ccn(CC)[c]3=[Au][Br])c2)[c]1=[Au][Br]` [6d], the IC50 (as a rule, the midpoint of a concentration-inhibition curve) with HepG2 cells [1] (72 h MTT assay, Mean ± SD) came out at 2.54 ± 0.13 µM. In the test on HepG2 cells [1] (HepG2 cells), the “times more toxic than GLA” value was determined as 16 times. Besides, in the test with 293T cells, the IC50 is 5.14 ± 0.3 µM. The “TrxR expression level (western blot)” value on TrxR (HepG2, 24 h) was “did not downregulate TrxR expression levels”. In addition, the “intracellular TrxR activity” value on TrxR (HepG2, 24 h, 2, 4, 8 µM, TrxR probe and activity assay kit) is “suppressed TrxR activity”. Further, the “mitochondrial membrane potential (MMP)” value in the test with HepG2 cells [2] is “decreased MMP”. In addition, the apoptosis result in the test with HepG2 cells [3] is listed as “apoptosis was observed”. Besides, in [4], the “ERK1/2 phosphorylation (western blot, Figure S49)” value is on record as “downregulated ERK1/2 phosphorylation”; the “phosphorylation of MEK1/2 and ERK1/2 (western blot)” value was “significantly inhibited”. Moreover, in the test with PD-L1 [5], the “PD-L1 expression (western blot)” value is reported as “downregulated; also recorded: significantly inhibited”. For the same molecule, the “PD-L1 expression on the membrane surface” value in the test with PD-L1 [5] (immunofluorescence and flow cytometry) is “reduced”. Also, the “Akt phosphorylation (western blot)” value in the test with phosphorylated Akt is “inhibited Akt phosphorylation”. In addition, the “tumor volume growth vs model group” value in the test on Hepa1-6 tumors (after 11 days of treatment, 5 mg kg^−1 i.p. every two days) is listed as “significant reduction in tumor volume growth”. Also, the “tumor growth vs model group” value in the test with Hepa1-6 tumors (after 13 days, 6d and OXA 5 mg kg^−1, GLA 10 mg kg^−1, i.p. every two days) is given as “significant tumor growth inhibition”. Further, the “MAPK pathway activation (phosphorylation of MEK1/2 and ERK1/2) in tumor tissue” value in test [6] is “significantly inhibited”. In the test with PD-L1 [7], the “PD-L1 expression in tumor tissue” value is “inhibited”.
